# In article PMC3710446 (Journal of pharmaceutical sciences, 2011):
# What was measured:
# SOPT1 = assay: Uptake of [3H]deltorphin II in RGC-5 cells and influence of tripeptides; conditions: RGC-5 cells, deltorphin II 25 nM
# SOPT2 [1] = assay: Uptake of [3H]DADLE in RGC-5 cells; conditions: DADLE 25 nM, 30 min of incubation
# SOPT2 [2] = assay: Influence of compounds on [3H]DADLE uptake in RGC-5 cells; assay type: cell-based, rat; conditions: compound 1 mM; for [3H]DADLE uptake in the presence of compound, % of control (Table 2): [3H]DADLE 10 nM, 30 min, control = 100; for stimulation of [3H]DADLE uptake: p < 0.001
# RGC-5 cells = assay: Uptake of FITC-labeled HIV-1 Tat47–57 in RGC-5 cells; assay type: cell-based, rat; conditions: FITC-Tat 25 nM, 15 min, NaCl-containing buffer, confocal microscopy
Molecule,"[3H]DADLE uptake in the presence of compound, % of control (Table 2) (SOPT2 [2])",stimulation of [3H]DADLE uptake (SOPT2 [2]),other results
CC(C)[C@H](NC(=O)[C@H](CCC(=O)O)NC(=O)[C@H](Cc1ccccc1)NC(=O)[C@@H](C)NC(=O)[C@@H](N)Cc1ccc(O)cc1)C(=O)N[C@H](C(=O)NCC(N)=O)C(C)C [Deltorphin II],–,–,uptake of deltorphin II (SOPT1; absence of Na+): 1.1 ± 0.1 pmol/mg of protein/30 min; uptake of deltorphin II (SOPT1; presence of Na+): 3.6 ± 0.2 pmol/mg of protein/30 min
"CC(C)C[C@@H](NC(=O)[C@H](Cc1ccccc1)NC(=O)CNC(=O)[C@@H](C)NC(=O)[C@@H](N)Cc1ccc(O)cc1)C(=O)O [DADLE, [D-Ala^2, D-Leu^5]-Enkephalin]",–,–,uptake in the presence of Na+ relative to uptake in the absence of Na+ (SOPT2 [1]): 2–3 times
"O=C1CC[C@@]2(O)[C@H]3Cc4ccc(O)c5c4[C@@]2(CCN3CC2CC2)[C@H]1O5 [Naltrexone, naltrexone]",150%,50%,–
"C=CCN1CC[C@]23c4c5ccc(O)c4O[C@H]2C(=O)CC[C@@]3(O)[C@H]1C5 [Naloxone, naloxone]",133%,33%,–
FITC-Tat47–57: Fluorescein isothiocyanate-conjugated Tat47–57 peptide,–,–,cellular uptake of FITC-labeled peptide (cell-associated green fluorescence) (RGC-5 cells): enters RGC-5 cells
